Data: patent US9775854B2 (Indiana University Research and Technology Corp., priority 2006, dated 2017)
“Also recorded” adds a separate entry of the source.

Columns and labels:
COS7 cells = assay: Cytotoxicity (cell death, % inviability) in COS7 cells; assay type: cell-based
Procedure: Gentamicin and various congeners isolated and purified by, for example, the HPLC techniques outlined in Sandoval et al. were tested to assess their level of cytotoxicity. Briefly, COS7 cells were grown in the presence of either 200 or 500 ug/ml of one of the following test compounds, the C1 or the C2 congeners of gentamicin or native gentamicin. As a control still another batch of COS7 cells were grown in absence of all of the test compounds.
Referring now to FIG. 6 cell inviability was determined for cells exposed to no test compound, native gentamicin or a congener of gentamicin; in this graph a high value indicate […]. Cell death (% inviability) was determined for each of the six conditions.

UGAC stop codon = assay: Stop codon readthrough assay; assay type: cell-based; details: 200 ug/ml, 24 hours
Procedure: The cells were exposed to 200 ug/ml of each compound for 24 hours.
The method used to assess readthrough is as follows.
In order to determine the optimal concentrations of the aminoglycosides to use in the mammalian translation system, increasing amounts of each aminoglycoside were added to a rabbit reticulocyte translation system while expressing the QX(N) (UGAC) construct. The effect of aminoglycoside addition on total protein synthesis was monitored by comparing the total amount of proteins synthesized in the presence and absence of various aminoglycosides. A range of aminoglycoside concentrations was then determined that allowed a maximal amount of termination suppression without inhibiting total protein synthesis more than two- to threefold. In vitro translation reactions were carried out using the TNT coupled transcription/translation system (Promega). […] The gel was dried and subjected to PhosphorImager analysis in order to quantitate the amount of truncated and full-length protein species. The percentage of readthrough was then calculated as the amount of full-length protein/(truncated+full-length species)×100.

viable cells = assay: Cytotoxicity by dye exclusion assay (FIG. 7); assay type: cell-based; details: viable cells treated vs untreated
Procedure: FIG. 7 also includes information on the cell toxicity. Cytotoxicity was measured by comparing the number of viable cells in treated and untreated samples using a dye exclusion assay of the compounds tested. […] (the […]) was the most toxic compound tested 4.4 fold more toxic than the control (no added aminoglycoside) followed by […] (native gentamicin) 1.7 times more toxic than the control; the least toxic compound tested was […]

[1] = test system: LLC-PK1 proximal tubule cells
Procedure: (§1) Differences in necrosis, apoptosis, and cell density among the various congeners on the human and porcine cell lines were determined using an ANOVA function with Systat 11 software (Systat Software, Point Richmond, Calif.). […] All reported values are mean±SEM.
The nuclear dye propidium iodide is cell impermeant and labels only necrotic cells, characterized by permeable cell membranes; co-localization of the two dyes gives a reddish-pink color. […] Values are means±SEM. Bar=approximately 10 microns.
The nuclear dyes propidium iodide and Hoechst 33342 were used as markers for necrosis and apoptosis, respectively.

[2] = Nephrotoxicity in rats: serum creatinine after six daily doses
Procedure: as §1
We specifically used six daily doses for these studies to allow additional time for the C2 component to induce injury, because it is widely known that serum creatinine rises early in this model when native gentamicin is used.

[3] = test system: proximal convoluted tubules; assay: Kidney morphology and histology in rats (H&E, PAS, modified Jablonski score, gentamicin immunofluorescence); assay type: in vivo, Sprague-Dawley rats; details: six doses
Procedure: Morphologic evaluation of injury caused by gentamicin and its congeners was assessed by grading the extent of necrosis of the proximal convoluted tubules. Injury scores were assigned on the basis of the predominant pattern present. For indirect immunofluorescence, 100 μm-thick sections were cut on a vibratome and stained with the monoclonal anti-gentamicin antibody (Biodesign International, Saco, Me.) and a fluorescein-conjugated secondary antibody (Jackson Immunoresearch, West Grove, Pa.) and lightly counterstained with Alexa 647 phalloidin (Molecular Probes) to localize filamentous actin for visualization using confocal microscopy.
Histological sections were viewed with a Wide field Nikon microscope with an attached color CCD camera (Nikon, Melville, N.Y.). Fluorescence images were acquired using a Bio-Rad MRC 1024 confocal microscope (Bio-Rad, Hercules, Calif.) on a Nikon platform (The Fryer Co., Huntley, Ill.). Co-localization studies with Texas Red dextran, FITC-Helixpontatia, and gentamicin were conducted on a Zeiss 510 confocal microscope with images illuminated and acquired sequentially to eliminate bleed-over emissions from the different fluorescence emission spectra.
Again, these studies were conducted after 7 days of exposure, or six doses of gentamicin. This was to ensure that we would see any delayed nephrotoxicity from the […]. These studies occurred at a time when the native gentamicin-treated animals were recovering, as evidenced by a reduction in serum creatinine levels in these animals. Therefore, these studies likely underestimate the actual histological damage that occurred early on in animals treated with native gentamicin. […] In addition, large perinuclear vacuoles (FIG. 3 B, arrowheads) could be seen in the renal corticol area. […] Here, proximal tubules from native gentamicin treated rats contained cast material and shed cells in the lumen (thick arrow). In addition, many of the proximal table cells contained large vacuoles that localized around the nucleus (FIG. 3 B, arrowheads).
Referring now to FIG. 3 D-E, thin histological sections also were stained with PAS to localize the glycocalyx that was associated with the brush border membrane of proximal tubules. […]
Referring now to FIG. 3 G-H, when tissues from rats that were exposed to the native commercial gentamicin compound or the […] of gentamicin were processed for indirect immunofluorescence localization of gentamicin, a difference in the intracellular accumulation and distribution emerged. […] Tissue sections from rats that were treated with normal saline alone and processed identically for immunofluorescence localization produced no fluorescence associated with gentamicin localization (data not shown).

dystrophin = assay: Dystrophin immunohistochemistry in mdx mice after i.m. treatment; assay type: in vivo; details: about 1 or 5 mg/day, 7 days
Procedure: Eight mdx mice are treated with I.M. injections of either gentamicin or the […] of gentamicin (C2 in Formula I) four of the mice receive either gentamicin or the […] at a dose of about 1 mg/day and the other four mice receive the same compounds at a dose of about 5 mg/day. The animals are dosed over a period of 7 days. […] All mice are sacrificed, their skeletal muscle and their hearts are frozen and cryostat sectioned. The presence of dystrophin in these sections is investigated by immunohistochemistry. Strong dystrophin immunostaining is observed in the normal skeletal and heart muscles. In the untreated mdx muscles, dystrophin immunostaining is observed only in a few revertant fibers. […] The dystrophin staining is less intense in the muscles of mice treated with […]. Therefore a dose of about 8 to 40 mg per Kg of body weight per day of either gentamicin or the […] of gentamicin successfully suppresses the premature stop codon by inserting an amino acid, and continuing translation of […] nucleic acids. Subcutaneous and intravenous administration will provide the same results. The duration of the course of treatment may vary. […]

Bacillus subtilus = assay: Bactericidal properties against Bacillus subtilus; assay type: cell-based
Procedure: (§2) Referring now to Formula 1 and FIG. 1, 4 congeners can be isolated and purified from native gentamicin. Methods for isolating and purifying congeners include the following method. Briefly, separation of native gentamicin was carried out using a C18 column (250×4.60 mm) and the chromatograms was developed using a Waters 600e HPLC pump (Milford, Mass.). A gradient of 100% of a 0.1% (vol/vol) mixture of tri-fluoro-acetic acid in acetonitrile was used to develop the chronogram. […] There was no overlap between adjacent peaks. For all studies, the same lot of gentamicin was used. This ensured that the results obtained were independent of potential alteration in the ratio of gentamicin components. […] For additional discussion of this methodology please see, for example, Sandoval, et al.

[4] = test system: multi-drug resistant form of Klebsiella pneumoniae; assay: Bactericidal properties against multi-drug resistant Klebsiella pneumoniae; assay type: cell-based
Procedure: as §2

[5] = test system: Gram-positive and multi-drug-resistant Gram-negative bacteria; details: Sandoval et al.; cited from earlier work
[6] = test system: LLC-PK1 proximal tubule cells; details: results provided in Sandoval et al.; cited from earlier work
LLC-PK1 cells = assay: Long-term (24 h) exposure: lysosome and Golgi complex localization in LLC-PK1 cells; details: 24 h of continuous exposure
Procedure: During this period of exposure to native gentamicin or the congeners, lysosomes were labeled by adding a 10,000 molecular weight rhodamine dextran to the culture medium (0.5 mg/ml; Molecular Probes). The cells then were fixed and stained for indirect immunofluorescence and visualized via confocal microscopy. Briefly, the Golgi complex was localized with a fluorescein-conjugated lectin from Helix pornotia at 5 μg/ml (EY Laboratories, San Mateo, Calif.) diluted in solution that contained the CY-5 conjugated secondary antibody that was used in the indirect immunolocalization of gentamicin. Visualization of nonlysosomal, cytosolic gentamicin was carried out as described previously, using a Tyramide Signal Amplification (Molecular Probes).
In order to study long-term differences in the intracellular distribution of gentamicin, we undertook additional study of gentamicin distribution in LLC-PK1 cells. […]

IDUA and p53 genes = details: cited from earlier work
[7] = LLC-PK1 cells, 24 hours of exposure

gentamicin C1 [reference compound]
toxicity ranking (cell death, % inviability) (COS7 cells; 200 or 500 ug/ml): greatest toxicity | readthrough of the UGAC stop codon (UGAC stop codon): minimal readthrough | toxicity relative to control (no added aminoglycoside) (viable cells): 4.4 fold

gentamicin C2
cell density, % of untreated (control) values [1, 7]: 80.3±5.7% | percentage of cell death (toxicity index) [1, 7]: 3.1±1.3% | cytotoxicity in cell culture (in words) ([1]; cultured cells, 24 hours of continual exposure): minimal cytotoxicity; also recorded: markedly reduced toxicity; also recorded: minimal evidence of toxicity | change in serum creatinine (in words) ([2]; 100 mg/kg per day intraperitoneally, six daily doses): no elevation in serum creatinine | serum creatinine ([2]; 100 mg/kg per day intraperitoneally, six daily doses, up to 24 hours after the last injection): ≤ 0.2 mg/dL | functional and pathologic changes characteristic of gentamicin nephrotoxicity ([2]; animal studies): failed to induce | renal injury, modified Jablonski score ([3]; rat cortex, compared with native gentamicin): significantly reduced; also recorded: significantly lower | kidney morphology, H&E-stained sections ([3]; rats, 7 days of exposure): normal morphology | lysosomal morphology in proximal tubule cells, indirect immunofluorescence ([3]; rats, 7 days of exposure): normal lysosomal morphology | proximal tubular brush border, PAS staining ([3]; rats, 7 days of exposure): more abundant and enriched PAS staining | toxicity (cell death, % inviability) (COS7 cells; 200 ug/ml): virtually no toxicity | toxicity (cell death, % inviability) (COS7 cells; 500 ug/ml): only very minimal toxicity | readthrough of the UGAC stop codon (UGAC stop codon): intermediate effect on readthrough | toxicity relative to control (no added aminoglycoside) (viable cells): no more toxic than the control | dystrophin immunostaining in skeletal and heart muscle (dystrophin): detected by immunohistochemistry on all muscle fibers and all heart muscle cells | bactericidal properties (Bacillus subtilus): excellent bactericidal properties | bactericidal properties [4]: excellent bactericidal properties | bactericidal potency compared with native gentamicin and other congeners [5]: as potent a bactericide | toxicity in cell culture [6]: nontoxic | Golgi complex staining with Helix pomatia lectin (LLC-PK1 cells): faint | lysosome appearance (Texas Red dextran) (LLC-PK1 cells): small, discrete vesicles found throughout the cellular cytosol

NC[C@H]1O[C@H](O[C@H]2[C@H](O)[C@@H](O[C@H]3O[C@H](CO)[C@@H](O)[C@H](N)[C@H]3O)[C@H](N)C[C@@H]2N)[C@H](N)C[C@@H]1O [Tobramicin]
premature stop codons overcome (IDUA and p53 genes): not

NCC[C@H](O)C(=O)N[C@@H]1C[C@H](N)[C@@H](O[C@H]2O[C@H](CN)[C@@H](O)[C@H](O)[C@H]2O)[C@H](O)[C@H]1O[C@H]1O[C@H](CO)[C@@H](O)[C@H](N)[C@H]1O [Amikacin]
premature stop codons overcome (IDUA and p53 genes): can be overcome
